Where a name gives a salt, the structure may show the parent alone.
Columns and labels:
Mice = assay: Single-dose toxicity in mice; type: in vivo; conditions: for deaths: three males and three females
Experimental: Mice were divided into four groups for each having three males and three females and treated by compound 1 at a single-dose of 200, 600, 1800 and 5400 mg/kg, respectively.

[1] = tested on: experimental autoimmune encephalomyelitis (EAE) model; assay: Pharmacodynamics on EAE model (MOG 35-55 induced), EAE score and H&E/LFB staining of cervical spinal cord; type: in vivo, C57BL/6 mice; conditions: for incidence of EAE: intragastric administration (FIG. 5, FIG. 6)
Sprague Dawley rats = assay: 7-day repeated intragastric toxicity in rats; type: in vivo; conditions: intragastrically daily at 75, 150, 300 mg/kg for 7 consecutive days, 3 males and 3 females per group
Experimental: Sprague Dawley rats, each group having 3 males and 3 females were administrated intragastrically daily at 75, 150, 300 mg/kg respectively for 7 consecutive days.

[2] = Bioavailability by oral administration; type: in vivo
[3] = tested on: experimental autoimmune encephalomyelitis (EAE) model; conditions: mice; cited from earlier work
[4] = 30 mg/kg/day intragastrically, vs EAE model group
[5] = crystal type A, 15 mg/kg once daily oral gavage, vs EAE model group

Row | Compound | deaths (Mice; single dose 1800 mg/kg) | deaths (Mice; single dose 5400 mg/kg) | toxic reactions (Mice; single dose 200 and 600 mg/kg, three males and three females per group) | course of EAE ([1]; 30 mg/kg) | disease severity (EAE score) ([1]; 30 mg/kg/day intragastrically, from day 0 of immunization, 30 days) | onset of EAE ([1]; 30 mg/kg/day intragastrically, from day 0 of immunization, 30 days, in 0.5% CMC-Na) | arrangement of the organization (blood vessel and tissue) [1, 4] | demyelination (LFB staining) [1, 4] | inflammatory cells (H&E analysis) [1, 4] | incidence of EAE [1] | onset of EAE ([1]; crystal type A in injection water, 15 mg/kg once daily oral gavage from day 0) | course of EAE ([1]; crystal type A, 15 mg/kg once daily oral gavage) | disease severity (EAE score) ([1]; crystal type A, 15 mg/kg once daily oral gavage from day 0) | demyelination (LFB staining) ([1]; crystal type A, 15 mg/kg once daily oral gavage, vs EAE model control) | arrangement of the organization (blood vessel and tissue) [1, 5] | inflammatory cells (H&E analysis) [1, 5] | toxic reactions (Sprague Dawley rats) | bioavailability by oral administration [2] | therapeutic effect on EAE model [3]
1 | CC(=O)O[C@H]1C[C@H](OC(C)=O)[C@]2(C)[C@@H]1[C@H](C)C[C@@H]1OC(=O)[C@H](CN(C)C)[C@H]1[C@@H]2OC(C)=O [Compound I, dimethylamine 4-O-acetyl inula lineariifolia lactone A] | One female mouse died | Five mice except one male mouse died | No obvious toxic reactions were observed | ameliorated | reduced | delayed | basically returned to normal condition | significantly reduced | reduced | significantly reduce | – | – | – | – | – | – | – | – | –
2 | CC(=O)O[C@H]1C[C@H](OC(C)=O)[C@]2(C)[C@@H]1[C@H](C)C[C@@H]1OC(=O)[C@H](CN(C)C)[C@H]1[C@@H]2OC(C)=O [Compound IV, dimethylamine 4-O-acetyl inula lineariifolia lactone A fumarate] | – | – | – | – | – | – | – | – | – | significantly reduce | delayed | ameliorated | reduced | significant lower | basically returned to normal condition | reducing | No obvious toxic reactions were observed | – | –
3 | C=C1C(=O)O[C@H]2C[C@@H](C)[C@@H]3[C@@H](OC(C)=O)C[C@H](O)[C@@]3(C)[C@@H](OC(C)=O)[C@H]12 [Inula lineariifolia lactone A] | – | – | – | – | – | – | – | – | – | – | – | – | – | – | – | – | – | low | good therapeutic effect

Source: US10273220B2, “Derivative of Inula lineariifolia lactone A” (SHANXI ZHENDONG LEADING BIOTECHNOLOGY CO., LTD., priority 2015, dated 2019)
